This is an account of results in US5827876A, “Inhibition of bone loss by 3-(4-acrylamidobenzoyl) benzo[b]-thiophenes” (priority 1997, dated 1998).

Where two headings read alike, the source gives them in different places.

For series [1], the system named is Ishikawa cells. The series is described as follows: Ishikawa Cell Alkaline Phosphatase Assay. The series is classed as cell-based. The conditions noted are these: Homo sapiens, reference compounds, estrogenic activity, 48 h treatment, 95% C.I. given in parentheses, read-out: ED50 values (95% C.I.), alkaline phosphatase activity. As to the method: Ishikawa Cell Alkaline Phosphatase Assay
Cell maintenance and treatment:
Ishikawa cells are maintained in DMEM/F12 (50%:50%) containing phenol red+10% fetal bovine serum. The medium also is supplemented with 2 mM Glutamax, 1% Pen/Strep and 1 mM sodium pyruvate. Five days prior to the beginning of an experiment (treatment of cells) the medium is changed to phenol red-free DMEM/F12+10% dextran coated charcoal stripped serum. On the day before treatment, cells are harvested using 0.5% trypsin/EDTA and plated at a density of 5×10^4 cells/well in 96-well tissue culture plates. […] Cells are treated for 48 hours prior to assay. […] Sample size for each compound dose is n=8.
Alkaline Phosphatase assay:
At the end of 48 hours the media is aspirated and cells are washed three times with phosphate buffered saline (PBS). 50 μl of lysis buffer (0.1M Tris-HCl, pH 9.8, 0.2% Triton X-100) is added to each well. Plates are placed at -80° C. for minimally 15 minutes. Plates are rapidly thawed at 37° C. followed by the addition of 150 μl of 0.1M Tris-HCl, pH 9.8, containing 4 mM para-nitrophenylphosphate to each well (final concentration is 3 mM pNPP).
Absorbance and slope calculations are done using the KineticCalc Application program (Bio-Tek Instruments, Inc., Winooski, Vt.). Results are expressed as the mean ±S.D. of the rate of enzyme reaction (slope) averaged over the linear portion of the kinetic reaction curve (optical density readings every 5 minutes for 30 minutes absorbance reading).

The target of series [2] is T1, estrogen receptor (Homo sapiens, UniProt P03372).
T1 sequence (P03372 1-595): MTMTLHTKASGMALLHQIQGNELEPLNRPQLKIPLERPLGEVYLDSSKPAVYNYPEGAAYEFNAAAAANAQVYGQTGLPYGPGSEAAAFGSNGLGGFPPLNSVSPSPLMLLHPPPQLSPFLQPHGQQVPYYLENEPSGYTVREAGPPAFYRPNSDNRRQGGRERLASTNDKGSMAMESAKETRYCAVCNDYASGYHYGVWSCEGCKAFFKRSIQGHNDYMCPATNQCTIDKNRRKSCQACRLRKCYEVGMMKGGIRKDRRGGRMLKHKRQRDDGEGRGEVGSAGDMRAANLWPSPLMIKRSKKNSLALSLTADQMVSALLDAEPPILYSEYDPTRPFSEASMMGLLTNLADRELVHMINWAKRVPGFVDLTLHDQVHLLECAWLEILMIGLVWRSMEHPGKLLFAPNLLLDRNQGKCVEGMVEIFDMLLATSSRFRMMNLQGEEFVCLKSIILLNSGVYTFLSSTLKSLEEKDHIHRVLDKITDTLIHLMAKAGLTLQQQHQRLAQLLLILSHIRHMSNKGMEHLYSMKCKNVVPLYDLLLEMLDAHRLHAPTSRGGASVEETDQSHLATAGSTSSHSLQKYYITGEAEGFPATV
The series is described as follows: Estrogen Receptor Binding/Competition Assay ([3H]17β-estradiol displacement, CHO cytosol).

For series [3], the system named is ovariectomized rats. The following applies: cited from earlier work.
For series [4] the following is noted: background statement, cited from earlier work.
Where [5] appears, read: ovariectomized rats, Black et al. 1994.

For `C[C@]12CC[C@@H]3c4ccc(O)cc4CC[C@H]3[C@@H]1CC[C@H]2O` [17α-estradiol], in series [1], the EC50 was determined as 1.42 nM.

As for `C[C@]12CC[C@@H]3c4ccc(O)cc4CC[C@H]3[C@@H]1CC[C@@H]2O` [17β-estradiol], in series [1], the EC50 worked out at 0.03 nM. Broadly, the IC50 is the concentration that gives 50% inhibition. High values mean weaker potency in that assay, low ones greater potency in that assay. As for `CN(C)C(=O)/C=C/c1ccc(C(=O)c2c(-c3ccc(O)cc3)sc3cc(O)ccc23)cc1` [Example 3, (E)-3-{4-[6-Hydroxy-2-(4-hydroxyphenyl)benzo[b]thiophene-3-carbonyl]phenyl}-N,N-dimethylacrylamide], the IC50 in series [2] was 150 nM. In other words, the sub-micromolar range. On the same count and under the same terms, to `CC(C)(C)NC(=O)/C=C/c1ccc(C(=O)c2c(-c3ccc(O)cc3)sc3cc(O)ccc23)cc1` [Example 4, (E)-N-t-Butyl-3-{4-[6-hydroxy-2-(4-hydroxyphenyl)benzo[b]thiophene-3-carbonyl]phenyl}acrylamide] belongs 100 nM. `CCN(CC)C(=O)/C=C/c1ccc(C(=O)c2c(-c3ccc(O)cc3)sc3cc(O)ccc23)cc1` [Example 5, (E)-N,N-Diethyl-3-{4-[6-hydroxy-2-(4-hydroxyphenyl)benzo[b]thiophene-3-carbonyl]phenyl}acrylamide] displayed an IC50 in series [2] of 100 nM. Still for that read-out and setting: to `O=C(c1ccc(/C=C/C(=O)N2CCOCC2)cc1)c1c(-c2ccc(O)cc2)sc2cc(O)ccc12` [Example 6, (E)-3-{4-[6-Hydroxy-2-(4 hydroxyphenyl)benzo[b]thiophene-3-carbonyl]-phenyl}-1-(morpholin-4-yl)prop-2-en-1-one] belongs 170 nM. `O=C(c1ccc(/C=C/C(=O)N2CCCCC2)cc1)c1c(-c2ccc(O)cc2)sc2cc(O)ccc12` [Example 7, (E)-3-{4-[6-Hydroxy-2-(4-hydroxyphenyl)benzo[b]thiophene-3-carbonyl]phenyl}-1-(piperidinyl)prop-en-1-one] gave an IC50 in series [2] of 70 nM. This IC50 lies about 2.4-fold lower than the previous one. With `C[C@]12CC[C@@H]3c4ccc(O)cc4CC[C@H]3[C@@H]1C[C@@H](O)[C@@H]2O` [estriol], the EC50 in series [1] amounted to 0.13 nM. The same measure, in the same setting: to `C[C@]12CC[C@@H]3c4ccc(O)cc4CC[C@H]3[C@@H]1CCC2=O` [estrone] belongs 0.36 nM.

Consider `O=C(c1ccc(OCCN2CCCCC2)cc1)c1c(-c2ccc(O)cc2)sc2cc(O)ccc12` [raloxifene], for which, in series [3] (setting [5]), the “effect on bone loss” value is listed as “prevents bone loss”, the “effect on serum cholesterol” value was “reduces serum cholesterol” and the uterine hypertrophy result is recorded as “without causing uterine hypertrophy”. For the same molecule, in series [3] (species not given), the “effect on bone loss” value was “reduce bone loss” and the uterine hypertrophy entry is reported as “without causing uterine hypertrophy”. Regarding `[F-].[Na+]` [sodium fluoride], in series [4], the bone growth quality result is on record as “the bone growth is irregular”, the fracture incidence entry was “fracture incidence does not appear to be significantly lowered” and the side-effects entry is on record as “significant side-effects”. The bone density increase in series [4] (up to the value) was 8-10 % a year.
